The results in this text go back to article PMC6366404, “4-(3-Nitrophenyl)thiazol-2-ylhydrazone derivatives as antioxidants and selective hMAO-B inhibitors: synthesis, biological activity and computational analysis” (Journal of Enzyme Inhibition and Medicinal Chemistry, 2019).

Structures are written as SMILES.

Data set [1] in a line: ABTS radical cation scavenging activity. As to the method:
(§1) The scavenging activity of the compounds on the ABTS radical cation [ABTS,2,2′-azino-bis(3-ethylbenzothiazoline)-6-sulphonic acid] was measured according to the method of Zengin et al.[37] with slight modification. Briefly, ABTS^+ was produced directly by reacting a 7 mM ABTS solution with 2.45 mM potassium persulphate and allowing the mixture to incubate for 12–16 h in the dark at room temperature. Prior to initiating the assay, the ABTS solution was diluted with methanol to an absorbance of 0.700 ± 0.02 at 734 nm. The sample solution (1 ml) was added to the ABTS^+ solution (2 ml) and mixed, and the sample absorbance was recorded at 734 nm after 30 min incubation at room temperature. The corresponding IC50 value, which is the effective concentration at which 50% of DPPH/ABTS radicals are scavenged, was calculated for each compound and trolox, as a reference drug.

Data set [2] is described as follows: Cupric ion reducing activity (CUPRAC). As to the method: The cupric ion reducing activity (CUPRAC) was determined according to the method of Zengin et al.[38]. The sample solution (0.5 ml) was added to a premixed reaction mixture containing CuCl2 (1 ml, 10 mM), neocuproine (1 ml, 7.5 mM), and NH4Ac buffer (1 ml, 1 M, pH 7.0). Similarly, a blank was prepared by adding the sample solution (0.5 ml) to a premixed reaction mixture (3 ml) without CuCl2. The absorbances of the sample and blank were subsequently recorded at 450 nm after 30 min incubation at room temperature. The absorbance of the blank was subtracted from that of the sample.
(§2) The FRAP (ferric reducing antioxidant power) assay was carried out as described by Zengin et al.[38]. The sample solution (0.1 ml) was added to the premixed FRAP reagent (2 ml) containing acetate buffer (0.3 M, pH 3.6), 2,4,6-tris(2-pyridyl)-s-triazine (10 mM) in 40 mM HCl, and ferric chloride (20 mM) in a ratio of 10/1/1 (v/v/v). The absorbance of the sample was subsequently recorded at 593 nm after 30 min incubation at room temperature. Both results were expressed as EC50 values, using trolox as a reference drug.

A short description of data set [3]: Phosphomolybdenum assay (PhosphoMo), total antioxidant activity. The following applies: concentration at which absorbance was 0.5. As to the method:
The total antioxidant activity of the compounds was evaluated by phosphomolybdenum method according to Zengin et al.[35]. The sample solution (0.3 ml) was combined with 3 ml of reagent solution (0.6 M sulphuric acid, 28 mM sodium phosphate, and 4 mM ammonium molybdate) and the absorbance was recorded at 695 nm after 90 min incubation at 95 °C. The EC50, which is the effective concentration at which the absorbance was 0.5, was calculated for each compound and trolox, as a reference drug.

The nature of data set [4]: Metal chelating activity on ferrous ions. The conditions noted are these: ferrozine. As to the method:
Metal chelating activity on ferrous ions was evaluated by the method previously described. Briefly, the sample solution (2 ml) was added to FeCl2 solution (0.05 ml, 2 mM). The reaction was initiated by the addition of 5 mM ferrozine (0.2 ml). Similarly, a blank was prepared by adding the sample solution (2 ml) to FeCl2 solution (0.05 ml, 2 mM) and water (0.2 ml) without ferrozine. Then, the sample and blank absorbance were recorded at 562 nm after incubation for 10 min at room temperature. The absorbance of the blank was subtracted from that of the sample. EDTA was used as a positive control and this property was expressed as IC50 value for each compound.

The nature of data set [5]: FRAP (ferric reducing antioxidant power) assay. As to the method:
as §2

Data set [6] can be described thus: DPPH radical scavenging activity. As to the method: The radical scavenging effect of the compounds using the 1,1-diphenyl-2-picrylhydrazyl (DPPH) radical was estimated according to Zengin et al.[36]. The sample solution (1 ml) was added to 4 ml of a 0.004% solution of DPPH in methanol. The sample absorbance was recorded at 517 nm after 30 min incubation at room temperature in the dark.
as §1
Background: The DPPH test is a chemical assay of radical scavenging.

Molecule `CCC(=NNc1nc(-c2cccc([N+](=O)[O-])c2)cs1)c1ccccc1` showed a melting point of 215 to 217 °C.

For the molecule `CC(=NNc1nc(-c2cccc([N+](=O)[O-])c2)cs1)c1cccc([N+](=O)[O-])c1`, the melting point lay within 214 to 216 °C.

As for `CC(=NNc1nc(-c2cccc([N+](=O)[O-])c2)cs1)c1ccc([N+](=O)[O-])cc1`, the melting point is 258 to 260 °C.

In turn, `O=[N+]([O-])c1cccc(-c2csc(NN=Cc3c[nH]c4ccccc34)n2)c1` gave a melting point of 253 to 255 °C.

The molecule `CC(=NNc1nc(-c2cccc([N+](=O)[O-])c2)cs1)c1c[nH]c2ccccc12` came in with a melting point of 209 to 211 °C.

`O=[N+]([O-])c1cccc(-c2csc(NN=Cc3ccc4c(c3)OCO4)n2)c1` registered a melting point of 255 to 256 °C.

`CC(=NNc1nc(-c2cccc([N+](=O)[O-])c2)cs1)c1cc2ccccc2o1` registered a melting point of 228 to 230 °C.

For the molecule `CC(=NNc1nc(-c2cccc([N+](=O)[O-])c2)cs1)c1ccc2c(c1)OCCO2`, the melting point was 242 to 244 °C.

Turning to `CC(=NNc1nc(-c2cccc([N+](=O)[O-])c2)cs1)c1ccc2ccccc2c1`, the melting point was in the range of 152 to 154 °C.

In the case of `O=[N+]([O-])c1cccc(-c2csc(NN=C(c3ccccc3)c3ccccc3)n2)c1`, the melting point was in the range of 166 to 168 °C.

`CC(=NNc1nc(-c2cccc([N+](=O)[O-])c2)cs1)c1cc2ccccc2oc1=O` gave a melting point of 183 to 185 °C.

On to `CC(=NNc1nc(-c2cccc([N+](=O)[O-])c2)cs1)c1ccc(C(C)=NNc2nc(-c3cccc([N+](=O)[O-])c3)cs2)cc1`, for which the melting point fell in the range of 283 to 285 °C.

On to `O=[N+]([O-])c1cccc(C=NNc2nc(-c3cccc([N+](=O)[O-])c3)cs2)c1`, for which the melting point was in the range of 222 to 224 °C.

Regarding `CC(=NNc1nc(-c2cccc([N+](=O)[O-])c2)cs1)c1ccc(Cl)s1` [Compound 6, 1-(1-(5-Chlorothiophen-2-yl)ethylidene)-2-(4-(3-nitrophenyl)thiazol-2-yl)hydrazine], the melting point lay in the range of 227 to 229 °C. Moreover, the IC50 in data set [1] amounted to 1080 ± 10 µM. The molecule also came in with an EC50 in data set [2] of 490 ± 10 µM. The EC50 in data set [3] turned out to be 1250 ± 50 µM. In addition, the IC50 in data set [4] was above 5000 µM. Moreover, in data set [5], the EC50 was found to be 620 ± 70 µM. The molecule further returned an IC50 in data set [6] of 1180 ± 10 µM.

`O=[N+]([O-])c1cccc(-c2csc(NN=Cc3ccccc3)n2)c1` [Compound 7, 1-Benzylidene-2-(4-(3-nitrophenyl)thiazol-2-yl)hydrazine] displayed a melting point of 193 to 195 °C. Further, the IC50 in data set [1] is 1040 ± 10 µM. For the same molecule, in data set [2], the half-maximal effective concentration (EC50) came to 660 ± 10 µM. A half-maximal response in data set [3] (EC50) required 1290 ± 160 µM. In data set [4], this molecule showed a concentration for half-maximal inhibition (IC50) above 5000 µM. Also, in data set [5], a half-maximal effect (EC50) was put at 660 ± 40 µM. The same molecule displayed an IC50 in data set [6] of 1380 ± 10 µM.

For `O=[N+]([O-])c1cccc(-c2csc(NN=Cc3ccccc3[N+](=O)[O-])n2)c1` [Compound 8, 1-(2-Nitrobenzylidene)-2-(4-(3-nitrophenyl)thiazol-2-yl)hydrazine], the melting point lay in the range of 228 to 230 °C. Besides, the half-inhibitory concentration (IC50) in data set [1] came to 1040 ± 10 µM. In data set [2], this molecule had an EC50 of 440 ± 20 µM. The molecule also had an EC50 in data set [3] of 1700 ± 50 µM. The molecule further showed an IC50 in data set [4] above 5000 µM. This molecule showed an EC50 in data set [5] of 470 ± 40 µM. In addition, the IC50 in data set [6] stood at 1470 ± 10 µM.

For `O=[N+]([O-])c1cccc(-c2csc(NN=Cc3ccccn3)n2)c1` [Compound 16, 1-(4-(3-Nitrophenyl)thiazol-2-yl)-2-(pyridin-2-ylmethylene)hydrazine], the IC50 in data set [1] is 1060 ± 20 µM; in data set [4] it was above 5000 µM; in data set [6], 1320 ± 10 µM. For the same molecule, the EC50 in data set [2] was 530 ± 20 µM; in data set [3], 1130 ± 10 µM; in data set [5], 510 ± 20 µM.

In the case of `O=[N+]([O-])c1cccc(-c2csc(NN=Cc3ccncc3)n2)c1` [Compound 18, 1-(4-(3-Nitrophenyl)thiazol-2-yl)-2-(pyridin-4-ylmethylene)hydrazine], the IC50 in data set [1] was 1040 ± 10 µM; in data set [4] it was above 5000 µM; in data set [6], 1370 ± 10 µM. Further, the EC50 came to 580 ± 10 µM in data set [2], 4700 ± 970 µM in data set [3] and 350 ± 10 µM in data set [5].

Consider `CC(=NNc1nc(-c2cccc([N+](=O)[O-])c2)cs1)c1ccccn1` [Compound 19, 1-(4-(3-Nitrophenyl)thiazol-2-yl)-2-(1-(pyridin-2-yl)ethylidene)hydrazine], for which the figures for the IC50 in data set [1], in data set [4] and in data set [6] were 1040 ± 10 µM, above 5000 µM and 1360 ± 10 µM, respectively. Also, the EC50 amounted to 510 ± 10 µM in data set [2], 2640 ± 340 µM in data set [3] and 380 ± 20 µM in data set [5].

Consider `CC(=NNc1nc(-c2cccc([N+](=O)[O-])c2)cs1)c1cccnc1` [Compound 20, 1-(4-(3-Nitrophenyl)thiazol-2-yl)-2-(1-(pyridin-3-yl)ethylidene)hydrazine], for which the values for the IC50 in data set [1], in data set [4] and in data set [6] were 1040 ± 10 µM, above 5000 µM and 1290 ± 10 µM, respectively. In addition, the EC50 in data set [2] came out at 420 ± 20 µM; in data set [3], 1770 ± 70 µM; in data set [5], 320 ± 20 µM.

Turning to `CC(=NNc1nc(-c2cccc([N+](=O)[O-])c2)cs1)c1ccncc1` [Compound 21, 1-(4-(3-Nitrophenyl)thiazol-2-yl)-2-(1-(pyridin-4-yl)ethylidene)hydrazine], the half-inhibitory concentration (IC50) in data set [1] was 1040 ± 10 µM; in data set [4], above 5000 µM; in data set [6], 1340 ± 20 µM. In addition, the results for the EC50 in data set [2], in data set [3] and in data set [5] were 460 ± 20 µM, 4480 ± 180 µM and 270 ± 10 µM, respectively.

`CC(=NNc1nc(-c2cccc([N+](=O)[O-])c2)cs1)c1cnccn1` [Compound 22, 1-(4-(3-Nitrophenyl)thiazol-2-yl)-2-(1-(pyrazin-2-yl)ethylidene)hydrazine] gave a melting point of 243 to 245 °C. The IC50 in data set [1] worked out at 1040 ± 10 µM. In addition, a half-maximal effect in data set [2] (EC50) was put at 910 ± 20 µM. In data set [3], this molecule came in with an EC50 of 1280 ± 30 µM. In data set [4], this molecule had an IC50 of 3860 ± 290 µM. The molecule further had an EC50 in data set [5] of 480 ± 40 µM. This molecule also showed an IC50 in data set [6] of 1340 ± 10 µM.

`O=[N+]([O-])c1cccc(-c2csc(NN=Cc3cccc4ccccc34)n2)c1` [Compound 28, 1-(Naphthalen-1-ylmethylene)-2-(4-(3-nitrophenyl)thiazol-2-yl)hydrazine] came in with a melting point of 212 to 214 °C. For the same molecule, the IC50 in data set [1] worked out at 1050 ± 10 µM. In addition, the EC50 in data set [2] was 510 ± 30 µM. For the same molecule, the EC50 in data set [3] was 4930 ± 830 µM. Also, the IC50 in data set [4] is above 5000 µM. This molecule also yielded an EC50 in data set [5] of 410 ± 10 µM. Moreover, it took 1300 ± 10 µM to reach half-maximal inhibition in data set [6] (IC50).

`CC(=NNc1nc(-c2cccc([N+](=O)[O-])c2)cs1)c1cccc2ccccc12` [Compound 29, 1-(1-(Naphthalen-1-yl)ethylidene)-2-(4-(3-nitrophenyl)thiazol-2-yl)hydrazine] had a melting point of 226 to 228 °C. In addition, inhibition in data set [1] was half-maximal at 1040 ± 10 µM (IC50). The same molecule displayed an EC50 in data set [2] of 460 ± 10 µM. The EC50 in data set [3] came out at 9390 ± 310 µM. Further, in data set [4], the IC50 was above 5000 µM. Moreover, in data set [5], the EC50 stood at 530 ± 20 µM. Besides, the IC50 in data set [6] was found to be 1420 ± 10 µM.

`O=C(O)CN(CCN(CC(=O)O)CC(=O)O)CC(=O)O` [EDTA, reference compound] yielded an IC50 in data set [4] of 20 ± 1 µM.

`Cc1c(C)c2c(c(C)c1O)CCC(C)(C(=O)O)O2` (stereo not shown) [Trolox, trolox, reference compound]: the IC50 in data set [1] amounted to 660 ± 20 µM; in data set [6], 400 ± 10 µM. The EC50 in data set [2] was determined as 240 ± 20 µM; in data set [3], 1130 ± 50 µM; in data set [5], 160 ± 10 µM.

As a reminder, the melting point is the temperature of the solid-liquid transition. One may read the IC50 as the concentration at which inhibition is half-maximal. What is called EC50 is the concentration giving half of the maximal effect. Read a low EC50 as higher potency in that assay.
